Laboratory results from publication PMC6351562, “Structure, function, and inhibition of drug reactivating human gut microbial β-glucuronidases” (Scientific Reports, 2019).
Values joined by “and” are separate entries in the source; they are usually repeats but may differ in a detail not shown here. Equal entries are not always repeated. Where two headings read alike, the source gives them in different places.

Experiments:
Format in all cases: biochemical
[1] = target: T1, Eubacterium eligens GUS (EeGUS) (Lachnospira eligens, UniProt C4Z6Z2); test: In vitro DCF-G processing assay (UPLC); details: DCF-G as substrate, 400 µM; pH 6.5; 37 °C
T1 sequence (C4Z6Z2 1-611): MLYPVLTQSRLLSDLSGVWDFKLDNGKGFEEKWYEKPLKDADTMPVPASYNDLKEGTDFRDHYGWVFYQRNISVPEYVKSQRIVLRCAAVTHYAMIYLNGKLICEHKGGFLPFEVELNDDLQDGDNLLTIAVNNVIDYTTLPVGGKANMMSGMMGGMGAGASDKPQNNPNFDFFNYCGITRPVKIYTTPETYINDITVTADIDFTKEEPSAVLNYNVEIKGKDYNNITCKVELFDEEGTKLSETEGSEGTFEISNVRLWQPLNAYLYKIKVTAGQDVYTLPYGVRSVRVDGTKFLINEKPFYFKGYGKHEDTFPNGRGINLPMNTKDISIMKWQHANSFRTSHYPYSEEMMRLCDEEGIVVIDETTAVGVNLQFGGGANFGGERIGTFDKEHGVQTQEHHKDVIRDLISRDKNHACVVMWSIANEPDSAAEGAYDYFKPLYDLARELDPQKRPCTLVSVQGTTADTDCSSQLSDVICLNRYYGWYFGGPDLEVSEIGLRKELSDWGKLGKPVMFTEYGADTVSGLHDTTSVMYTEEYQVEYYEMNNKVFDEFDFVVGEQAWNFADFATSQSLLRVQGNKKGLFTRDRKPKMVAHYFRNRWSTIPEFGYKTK

[2] = target: T2, Ruminococcus gnavus GUS (RgGUS) (Mediterraneibacter gnavus, UniProt A0A2N5PVZ8); test: In vitro DCF-G processing assay (UPLC); details: DCF-G as substrate, 400 µM; pH 6.5; 37 °C
T2 sequence (A0A2N5PVZ8 1-603): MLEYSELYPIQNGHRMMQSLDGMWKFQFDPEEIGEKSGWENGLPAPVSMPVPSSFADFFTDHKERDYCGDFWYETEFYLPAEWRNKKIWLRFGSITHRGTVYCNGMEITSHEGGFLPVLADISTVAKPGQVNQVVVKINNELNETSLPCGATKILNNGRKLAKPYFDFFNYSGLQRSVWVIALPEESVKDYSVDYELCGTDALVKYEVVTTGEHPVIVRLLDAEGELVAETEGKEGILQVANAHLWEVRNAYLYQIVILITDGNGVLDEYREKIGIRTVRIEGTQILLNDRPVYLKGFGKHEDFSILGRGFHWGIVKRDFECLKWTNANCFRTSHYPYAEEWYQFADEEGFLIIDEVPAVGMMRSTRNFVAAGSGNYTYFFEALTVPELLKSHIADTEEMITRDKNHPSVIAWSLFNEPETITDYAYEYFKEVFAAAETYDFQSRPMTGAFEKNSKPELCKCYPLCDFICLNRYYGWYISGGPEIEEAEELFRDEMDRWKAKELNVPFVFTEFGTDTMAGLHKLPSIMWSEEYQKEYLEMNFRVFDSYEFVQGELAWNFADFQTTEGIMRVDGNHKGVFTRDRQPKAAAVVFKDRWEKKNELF

[3] = target: T3, Bacteroides dorei GUS (BdGUS) (Phocaeicola dorei, UniProt I9FNR0); test: In vitro DCF-G processing assay (UPLC); details: DCF-G as substrate, 400 µM; pH 6.0; 37 °C
T3 sequence (I9FNR0 21-875): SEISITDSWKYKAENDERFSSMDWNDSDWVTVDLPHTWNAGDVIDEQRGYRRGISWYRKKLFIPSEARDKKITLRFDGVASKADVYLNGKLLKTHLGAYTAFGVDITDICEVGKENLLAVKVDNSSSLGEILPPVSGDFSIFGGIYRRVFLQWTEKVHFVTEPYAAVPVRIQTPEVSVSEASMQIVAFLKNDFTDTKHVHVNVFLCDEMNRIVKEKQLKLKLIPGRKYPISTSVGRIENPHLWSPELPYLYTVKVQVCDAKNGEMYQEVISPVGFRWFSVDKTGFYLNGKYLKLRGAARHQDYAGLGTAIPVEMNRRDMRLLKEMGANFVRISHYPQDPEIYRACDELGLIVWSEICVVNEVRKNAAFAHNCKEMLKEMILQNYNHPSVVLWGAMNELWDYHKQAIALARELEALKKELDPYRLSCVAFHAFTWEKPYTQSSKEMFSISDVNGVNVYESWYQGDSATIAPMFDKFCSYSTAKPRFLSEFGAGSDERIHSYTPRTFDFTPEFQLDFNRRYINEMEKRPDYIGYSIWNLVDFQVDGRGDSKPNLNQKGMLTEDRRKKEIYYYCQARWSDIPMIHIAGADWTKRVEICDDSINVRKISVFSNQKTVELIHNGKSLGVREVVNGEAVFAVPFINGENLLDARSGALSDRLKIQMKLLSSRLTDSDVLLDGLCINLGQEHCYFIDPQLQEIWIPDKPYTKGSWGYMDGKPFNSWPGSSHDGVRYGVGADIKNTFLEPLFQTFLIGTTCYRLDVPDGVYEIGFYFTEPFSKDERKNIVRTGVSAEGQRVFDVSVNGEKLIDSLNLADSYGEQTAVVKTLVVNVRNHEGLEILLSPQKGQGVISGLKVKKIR

E. coli GUS (EcGUS) = E. coli GUS (EcGUS) (Escherichia coli, UniProt P05804); test: In vitro inhibition assay (pNPG hydrolysis); details: for IC50: pNPG 900 µM, 1 hour end point
[4] = target: T1, Eubacterium eligens GUS (EeGUS); test: In vitro inhibition assay (pNPG hydrolysis); details: pNPG 900 µM
[5] = target: T4, Streptococcus agalactiae GUS (SaGUS) (Streptococcus agalactiae serotype V, UniProt Q8E0N2); test: In vitro inhibition assay (pNPG hydrolysis); details: for IC50: pNPG 900 µM
T4 construct: 6x His; made in house

[6] = target: T2, Ruminococcus gnavus GUS (RgGUS); test: In vitro inhibition assay (pNPG hydrolysis)
[7] = target: Bacteroides fragilis GUS (BfGUS) (Bacteroides fragilis, UniProt Q5LIC7); test: In vitro inhibition assay (pNPG hydrolysis)
[8] = target: T3, Bacteroides dorei GUS (BdGUS); test: In vitro inhibition assay (pNPG hydrolysis); details: for IC50: pNPG 900 µM
[9] = read-out: inhibition at 100 µM Inhibitor 1, 100 µM, pH 6.5 and 7.5
[10] = Inhibitor 1 (IC50, nM) pH 6.5, pH 6.5
[11] = Inhibitor 1 (IC50, nM) pH 7.5, pH 7.5
[12] = read-out: Inhibitor 1 (IC50, nM) pH 7.5, pH 7.5, pNPG 900 µM
[13] = pH 6.5, read-out: UNC10201652 (IC50, nM) pH 6.5
[14] = pH 6.5, 1 hour end point, read-out: UNC10201652 (IC50, nM) pH 6.5
[15] = pH 7.5, 1 hour end point, read-out: UNC10201652 (IC50, nM) pH 7.5
[16] = pH 7.5, pNPG 900 µM, read-out: UNC10201652 (IC50, nM) pH 7.5
[17] = read-out: UNC10201652 (IC50, nM) pH 6.5

T4 sequence (Q8E0N2 whole entry): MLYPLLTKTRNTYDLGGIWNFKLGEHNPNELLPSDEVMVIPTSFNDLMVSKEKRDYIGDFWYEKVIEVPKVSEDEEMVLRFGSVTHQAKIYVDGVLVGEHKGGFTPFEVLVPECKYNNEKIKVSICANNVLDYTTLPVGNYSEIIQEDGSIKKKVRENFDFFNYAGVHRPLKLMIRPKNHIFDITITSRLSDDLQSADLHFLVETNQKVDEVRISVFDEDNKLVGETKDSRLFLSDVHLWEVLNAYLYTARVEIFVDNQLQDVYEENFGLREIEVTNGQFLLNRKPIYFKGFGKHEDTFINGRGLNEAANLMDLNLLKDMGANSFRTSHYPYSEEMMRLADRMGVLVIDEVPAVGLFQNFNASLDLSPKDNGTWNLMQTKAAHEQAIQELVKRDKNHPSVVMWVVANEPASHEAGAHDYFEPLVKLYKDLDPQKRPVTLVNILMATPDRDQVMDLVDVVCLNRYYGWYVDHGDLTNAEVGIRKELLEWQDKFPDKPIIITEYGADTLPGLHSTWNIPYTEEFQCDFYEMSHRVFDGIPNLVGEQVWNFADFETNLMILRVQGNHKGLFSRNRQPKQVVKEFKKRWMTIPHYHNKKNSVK
Chain of E. coli GUS (EcGUS) (P05804 whole entry): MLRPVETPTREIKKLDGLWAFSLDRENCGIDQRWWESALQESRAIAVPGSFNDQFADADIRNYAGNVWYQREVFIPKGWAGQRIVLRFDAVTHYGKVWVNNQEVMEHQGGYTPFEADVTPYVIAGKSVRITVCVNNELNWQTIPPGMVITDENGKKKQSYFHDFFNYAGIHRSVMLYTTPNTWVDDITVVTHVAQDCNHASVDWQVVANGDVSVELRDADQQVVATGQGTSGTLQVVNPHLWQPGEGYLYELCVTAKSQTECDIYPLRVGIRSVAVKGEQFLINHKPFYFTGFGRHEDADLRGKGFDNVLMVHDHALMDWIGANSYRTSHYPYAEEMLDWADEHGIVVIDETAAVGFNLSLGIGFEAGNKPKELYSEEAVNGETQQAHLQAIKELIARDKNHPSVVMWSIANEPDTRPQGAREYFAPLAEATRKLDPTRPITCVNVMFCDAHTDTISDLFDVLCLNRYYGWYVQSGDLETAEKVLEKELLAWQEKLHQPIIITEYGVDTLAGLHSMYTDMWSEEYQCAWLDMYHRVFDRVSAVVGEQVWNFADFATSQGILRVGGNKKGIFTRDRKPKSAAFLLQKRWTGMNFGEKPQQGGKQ
Chain of Bacteroides fragilis GUS (BfGUS) (Q5LIC7 whole entry): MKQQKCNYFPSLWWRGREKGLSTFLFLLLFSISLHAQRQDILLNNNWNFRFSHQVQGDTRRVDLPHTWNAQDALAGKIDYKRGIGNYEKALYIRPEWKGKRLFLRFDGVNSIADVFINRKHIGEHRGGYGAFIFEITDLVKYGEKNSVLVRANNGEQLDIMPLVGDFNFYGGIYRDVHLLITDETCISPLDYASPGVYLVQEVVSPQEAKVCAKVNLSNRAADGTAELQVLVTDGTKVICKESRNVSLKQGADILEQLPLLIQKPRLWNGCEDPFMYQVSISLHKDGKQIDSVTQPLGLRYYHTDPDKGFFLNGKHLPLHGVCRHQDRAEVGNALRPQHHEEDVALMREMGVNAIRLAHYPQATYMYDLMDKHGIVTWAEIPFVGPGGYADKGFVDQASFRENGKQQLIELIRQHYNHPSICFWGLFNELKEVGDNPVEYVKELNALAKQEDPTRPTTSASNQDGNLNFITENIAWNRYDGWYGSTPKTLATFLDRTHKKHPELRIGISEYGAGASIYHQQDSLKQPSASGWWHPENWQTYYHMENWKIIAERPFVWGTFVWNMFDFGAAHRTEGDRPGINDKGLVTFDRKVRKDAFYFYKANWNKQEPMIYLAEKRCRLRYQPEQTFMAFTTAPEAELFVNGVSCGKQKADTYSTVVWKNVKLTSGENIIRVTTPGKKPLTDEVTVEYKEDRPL

O=C(Cc1ccccc1Nc1c(Cl)cccc1Cl)O[C@@H]1O[C@H](C(=O)O)[C@@H](O)[C@H](O)[C@H]1O [DCF-G, Diclofenac acyl β-D-glucuronide]
Apparent kcat [1]: 138 s⁻¹ and 138 ± 2 s⁻¹
Apparent kcat [2]: 24.0 s⁻¹ and 24.0 ± 0.5 s⁻¹
Apparent kcat [3]: 9.8 ± 0.6 s⁻¹

CCOc1ccc(NC(=S)N(CCO)Cc2cc3cc(C)cc(C)c3[nH]c2=O)cc1 [Inhibitor 1]
inhibition at 100 µM (E. coli GUS (EcGUS); [9]): ≥ 80%
IC50 [4, 10]: > 100000 nM
IC50 [4, 11]: > 100000 nM
IC50 [5, 10]: > 25000 nM
IC50 [5, 11]: > 25000 nM
inhibition at 100 µM [5, 9]: ≥ 80%
IC50 [6]: > 100000 nM
IC50 [6, 12]: > 100000 nM
IC50 [7]: > 100000 nM
IC50 [7, 12]: > 100000 nM
IC50 [8, 10]: > 100000 nM
IC50 [8, 11]: > 100000 nM

C1CCc2c(c(N3CCOCC3)nc3sc4c(N5CCNCC5)nnnc4c23)C1 [UNC10201652]
decrease in potency from pH 7.5 to pH 6.5 (E. coli GUS (EcGUS); UNC10201652, IC50 pH 6.5 vs pH 7.5): 3 fold
IC50 (E. coli GUS (EcGUS); [13]): 310 ± 20 nM
IC50 (E. coli GUS (EcGUS); pH 7.5, read-out: UNC10201652 (IC50, nM) pH 7.5): 100 ± 8 nM
potency relative to Inhibitor 1 (E. coli GUS (EcGUS); pH 7.5, times more potent than Inhibitor 1): 19 times
IC50 [4, 14]: 1900 ± 100 nM
IC50 [4, 15]: 410 ± 30 nM
IC50 [5, 14]: 450 ± 30 nM
IC50 [5, 15]: 133 ± 3 nM
IC50 [6, 16]: > 100000 nM
IC50 [6, 17]: > 100000 nM
inhibition (in words) ([7]; UNC10201652, text in picture of Fig. 7b): No Inhibition
IC50 [7, 16]: > 100000 nM
IC50 [7, 17]: > 100000 nM
inhibition at 100 µM ([8]; 100 µM, pH 6.5, read-out: inhibition at 100 µM UNC10201652): < 80%
IC50 [8, 13]: > 100000 nM
IC50 [8, 15]: > 25000 nM
